Experimental data reported in BigSolDB 2.1.

c1ccc2c(c1)Nc1ccccc1S2
solubility (mole fraction)
Settings	298.2 K	308.2 K	318.2 K	328.2 K	338.2 K
in ethanol	0.00876	0.01	0.0122	0.0145	–
in propylene glycol	0.00416	0.0054	0.00656	0.00763	0.00852
in water	1.56e-07	1.98e-07	2.52e-07	3.58e-07	4.91e-07
